pIC50: −log10 of the molar value.
Assays:
OX1 = molecular target: T1, OX1 (Homo sapiens, UniProt O43613); experiment: Orexin receptor cell-based functional assay, [Ca2+]i by FLIPR, CHO-OX1 cells; details: CHO-OX1 cells, [Ca2+]i by FLIPR, antagonist dose-range 0.1 nM-10 μM, EC90 of OXA; read-out: OX1
T1 construct: expressed in transfected cells; host or cells: CHO (CHO-OX1, kept under selection antibiotic)
T1 sequence (O43613 1-425): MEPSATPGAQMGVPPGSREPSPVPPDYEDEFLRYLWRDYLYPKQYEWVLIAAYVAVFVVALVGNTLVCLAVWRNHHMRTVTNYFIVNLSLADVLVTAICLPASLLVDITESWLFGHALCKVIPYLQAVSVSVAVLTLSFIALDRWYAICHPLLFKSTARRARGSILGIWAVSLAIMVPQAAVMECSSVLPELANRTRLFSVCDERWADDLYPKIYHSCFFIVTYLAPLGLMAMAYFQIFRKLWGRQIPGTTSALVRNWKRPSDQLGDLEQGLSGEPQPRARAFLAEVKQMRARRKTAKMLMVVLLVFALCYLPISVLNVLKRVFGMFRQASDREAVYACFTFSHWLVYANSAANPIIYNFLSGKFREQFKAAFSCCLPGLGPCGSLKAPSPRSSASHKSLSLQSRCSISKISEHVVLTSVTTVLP
Procedure, shortened: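 CHO cells expressing human OX1 or OX2 loaded with calcium dye plus 2.5 mM probenecid at 37° C (calcium4, 30 min, or calcium6, 2 h), then exposed to compounds (0.1 nM-10 μM) for 30 min. Intracellular Ca2+ measured on FLIPR; antagonist format.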

OX2 = molecular target: T2, OX2 (Homo sapiens, UniProt O43614); experiment: Orexin receptor cell-based functional assay, [Ca2+]i by FLIPR, CHO-OX2 cells; details: [Ca2+]i by FLIPR, antagonist dose-range 0.1 nM-10 μM, EC90 of OXA, read-out: OX2
T2 construct: expressed in transfected cells; host or cells: CHO (CHO-OX2, kept under selection antibiotic)
T2 sequence (O43614 1-444): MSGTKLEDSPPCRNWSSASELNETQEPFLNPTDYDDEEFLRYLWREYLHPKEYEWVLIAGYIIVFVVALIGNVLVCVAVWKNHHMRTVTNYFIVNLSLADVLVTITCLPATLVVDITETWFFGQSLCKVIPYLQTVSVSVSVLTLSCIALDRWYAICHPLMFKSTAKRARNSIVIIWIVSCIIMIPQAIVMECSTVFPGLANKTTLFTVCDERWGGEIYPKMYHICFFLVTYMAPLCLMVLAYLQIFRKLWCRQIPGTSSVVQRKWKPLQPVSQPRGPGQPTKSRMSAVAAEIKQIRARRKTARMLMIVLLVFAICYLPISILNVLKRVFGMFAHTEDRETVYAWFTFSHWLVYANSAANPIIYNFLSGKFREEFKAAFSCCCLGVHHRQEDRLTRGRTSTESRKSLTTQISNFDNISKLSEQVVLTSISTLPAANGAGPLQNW
Procedure: Measurement of [Ca^2+]i using a FLIPR: CHO—OX1 or CHO—OX2 cells are seeded into black-walled clear-base 384-well plates (Costar) at a density of 20,000 cells per well in F12-K medium supplemented with 10% FBS and selection antibiotic (500 ug/ml G418 or 15 ug/ml Blasticidin) and cultured overnight. The cells are incubated with equal volume of calcium4 loading buffer (Molecular Devices, Inc.) containing 2.5 mM probenecid at 37° C. for 30 min, followed by putative OX1 or OX2 receptor antagonists (dose-range 0.1 nM-10 μM) for another 30 min.
The cells are incubated with equal volume of calcium6 loading buffer (Molecular Devices, Inc.) containing 2.5 mM probenecid at 37° C. for 2 h, followed by test compounds (dose-range 0.1 nM-10 μM) for another 30 min.

CYP3A4 = molecular target: T3, CYP3A4 (Homo sapiens, UniProt P08684); experiment: Cytochrome P450 inhibition assay (midazolam hydroxylation); type: in vitro ADME; details: human, human liver microsomes, probe midazolam (hydroxylation to 1′-hydroxymidazolam), 10 μM test compound, midazolam at approximately its Km
T3 construct: pre-incubated with human liver microsomes and NADPH; from tissue; host or cells: human liver microsomes
Procedure, shortened: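 Human liver microsomes; CYP3A4 activity as midazolam 1′-hydroxylation with substrate near Km, with or without 10 μM test compound, read as percent inhibition. For time-dependent inhibition, parallel samples were preincubated 30 min with NADPH before substrate, and percent inhibition compared with non-preincubated samples.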

T3 sequence (P08684 whole entry): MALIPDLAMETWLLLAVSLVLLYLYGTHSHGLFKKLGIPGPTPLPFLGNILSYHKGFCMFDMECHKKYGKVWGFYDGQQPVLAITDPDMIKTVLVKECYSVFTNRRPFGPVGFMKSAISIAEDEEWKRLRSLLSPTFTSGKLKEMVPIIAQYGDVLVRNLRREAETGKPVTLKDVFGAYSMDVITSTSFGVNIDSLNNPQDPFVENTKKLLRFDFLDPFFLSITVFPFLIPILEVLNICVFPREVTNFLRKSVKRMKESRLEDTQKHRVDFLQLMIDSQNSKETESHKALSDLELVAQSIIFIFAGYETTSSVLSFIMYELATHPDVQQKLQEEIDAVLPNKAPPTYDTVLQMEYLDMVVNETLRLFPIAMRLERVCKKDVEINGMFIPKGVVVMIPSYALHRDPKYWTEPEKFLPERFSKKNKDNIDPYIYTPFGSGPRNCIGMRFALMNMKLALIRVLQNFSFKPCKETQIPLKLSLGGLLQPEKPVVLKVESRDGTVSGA

SMILES	pIC50 (OX1)	pIC50 (OX2)	inhibition at 10 µM (CYP3A4) [%]
Cc1ccc(-n2nccn2)c(C(=O)N2CCC[C@@H](C)[C@H]2CNc2ncc(Cl)cc2F)n1 [Example A192, ((2S,3R)-2-(((5-Chloro-3-fluoropyridin-2-yl)amino)methyl)-3-methylpiperidin-1-yl)(6-methyl-3-(2H-1,2,3-triazol-2-yl)pyridin-2-yl)methanone]	8.00	< 5.30	51
C[C@@H]1CCCN(C(=O)c2ccc(F)c(F)c2-n2nccn2)[C@@H]1CNc1ccc(C(F)(F)F)cn1 [Example A324, (3,4-Difluoro-2-(2H-1,2,3-triazol-2-yl)phenyl)((2S,3R)-3-methyl-2-(((5-(trifluoromethyl)pyridin-2-yl)amino)methyl)piperidin-1-yl)methanone]	9.00	6.31	87
C[C@@H]1CCCN(C(=O)c2ccc(F)c(F)c2-n2nccn2)[C@@H]1CNc1ncc(C(F)(F)F)cn1 [Example A325, (3,4-difluoro-2-(2H-1,2,3-triazol-2-yl)phenyl)((2S,3R)-3-methyl-2-(((5-(trifluoromethyl)pyrimidin-2-yl)amino)methyl)piperidin-1-yl)methanone]	8.70	5.39	80
C[C@@H]1CCCN(C(=O)c2c(F)ccc(F)c2-n2nccn2)[C@@H]1CNc1ccc(C(F)(F)F)cn1 [Example A332, (3,6-Difluoro-2-(2H-1,2,3-triazol-2-yl)phenyl)((2S,3R)-3-methyl-2-(((5-(trifluoromethyl)pyridin-2-yl)amino)methyl)piperidin-1-yl)methanone]	8.70	< 5.30	62
C[C@@H]1CCCN(C(=O)c2c(F)ccc(F)c2-n2nccn2)[C@@H]1CNc1ncc(C(F)(F)F)cn1 [Example A333, (3,6-difluoro-2-(2H-1,2,3-triazol-2-yl)phenyl)((2S,3R)-3-methyl-2-(((5-(trifluoromethyl)pyrimidin-2-yl)amino)methyl)piperidin-1-yl)methanone]	7.82	< 5.30	38
Cc1ccc(F)c(C(=O)N2CCC[C@@H](C)[C@H]2CNc2ncc(C(F)(F)F)cn2)c1-c1ncccn1 [Example A355, (6-fluoro-3-methyl-2-(pyrimidin-2-yl)phenyl)((2S,3R)-3-methyl-2-(((5-(trifluoromethyl)pyrimidin-2-yl)amino)methyl)piperidin-1-yl)methanone]	–	6.06	25

The remaining lines, values ahead:

pIC50 (OX1)	pIC50 (OX2)	inhibition at 10 µM (CYP3A4) [%]	SMILES
8.15	5.64	54	Cc1ccc(-n2nccn2)c(C(=O)N2CCC[C@@H](C)[C@H]2COc2ccc(C(F)(F)F)cn2)c1 [Example A106]
8.70	6.30	54	C[C@@H]1CCCN(C(=O)c2c(F)ccc(F)c2-c2ncccn2)[C@@H]1CNc1ccc(C(F)(F)F)cn1 [Example A334, (3,6-difluoro-2-(pyrimidin-2-yl)phenyl)((2S,3R)-3-methyl-2-(((5-(trifluoromethyl)pyridin-2-yl)amino)methyl)piperidin-1-yl)methanone]
8.40	< 5.30	44	C[C@@H]1CCCN(C(=O)c2c(F)ccc(F)c2-c2ncccn2)[C@@H]1CNc1ncc(C(F)(F)F)cn1 [Example A335, (3,6-difluoro-2-(pyrimidin-2-yl)phenyl)((2S,3R)-3-methyl-2-(((5-(trifluoromethyl)pyrimidin-2-yl)amino)methyl)piperidin-1-yl)methanone]
–	5.38	62	Cc1c(F)ccc(C(=O)N2CCC[C@@H](C)[C@H]2CNc2ccc(C(F)(F)F)cn2)c1-c1ncccn1 [Example A346, (4-fluoro-3-methyl-2-(pyrimidin-2-yl)phenyl)((2S,3R)-3-methyl-2-(((5-(trifluoromethyl)pyridin-2-yl)amino)methyl)piperidin-1-yl)methanone]
